Values of other authors in patent US20170165627A1, “MICROENCAPSULATION PROCESS” (ENCAPSYS, LLC, priority 2015, published 2017).
Converted amounts (≈) assume the structure as drawn.

Conditions: temperature at which the initiator has a 10 hour half-life

| Compound | 10 hour ½ life at (temperature) |
| --- | --- |
| CC(C)(N=NC(C)(C)C(=N)N)C(=N)N.Cl [Example V-50, 2,2′-azobis(2-amidinopropane) hydrochloride] | ½ life at 56 °C |
| CC(C)(N=NC(C)(C)C(=O)NCCO)C(=O)NCCO [VA-086, 2,2′-Azobis[2-methyl-N-(2-hydroxyethyl)propionamide]] | 10 hour ½ life at 86 °C |
| CCC(C)(C#N)N=NC(C)(C#N)CC (centres unmarked) [Vazo-67, 2,2′-azobis(2-methylbutyronitrile)] | 67 °C |
| N#CC1(N=NC2(C#N)CCCCC2)CCCCC1 [Vazo-88, 1,1′-Azobis(cyclohexanecarbonitrile)] | 88 °C |

Conditions: @ 25° C.

| Compound | Solubility in water |
| --- | --- |
| C=CC(=O)OCCOCCOCC [SR256, 2-(2-ethoxyethoxy) ethyl acrylate] | 25.33 g/L (≈ 135 mM) |
| Polyethylene glycol 200 diacrylate [SR259] | 40.68 g/L |
| Polyethylene glycol 400 diacrylate [SR344] | Water soluble |
| polyethylene glycol (600) diacrylate [SR610] | Water soluble |
